Measurements reported in patent US9464326B2, “Total and phosphorylated IL-1 receptor-associated kinase-1 and IL-1 receptor-associated kinase-4 as a biomarker for cancer progression and chemotherapy resistance” (University of Maryland, Baltimore, priority 2012, dated 2016).

What was measured:
Type in all cases: cell-based, human
[1] = system: A375 cells; assay: Western blot of IRAK phosphorylation in A375; settings: Pam3CysK4 2.5 μg/ml or flagellin 100 ng/ml, 48 hours, FIG. 22B
Method: FIG. 22. Effects of TLR stimulation and cytokines on IRAK phosphorylation in melanoma cells. (A) A375 cells were cultured in the presence of anti-IL-18, anti-CXCL-1, (R&D Systems), anti-IL-1 (BioLegend), or mouse IgG (Sigma-Aldrich) all at 10 μg/ml. Forty-eight hours later the levels of the indicated proteins were determined by western blot. (B) A375 cells, which express p-IRAK-1 and p-IRAK-4, and G361 melanoma cells, which express very low levels of p-IRAK-1 (and express TLR5) were cultured in the presence of TLR1-TLR2 agonist (Pam3CysK4; 2.5 μg/ml) or TLR5 (flagellin; 100 ng/ml; InVivogen). Forty-eight hours later total protein was collected and the levels of the indicated proteins were examined by western blot.
Total cell extracts were prepared from melanoma cells. […] Melanoma tissue arrays were purchased from US Biomax, Inc (Rockville, Md.). For immunohistochemical staining samples were stained with mouse monoclonal anti-human phosphor-IRAK.-4 antibody (Abnova; dilution, 3.5 μg/ml) or normal mouse serum. Tissue histology sections (5-μm-thick) were deparaffinized, hydrated, heated in boiling 10 mmol/L sodium citrate (pH 6.0), for antigen retrieval, for 30 min and washed in Tris buffer. Peroxide blocking was done with 3% […] in methanol at room temperature for 15 min, followed by 10% fetal bovine serum in TBS-t for 30 min at room temperature. Primary antibody incubation was done overnight at 4° C. Secondary antibody incubation with horse anti-mouse (1:200; Vector Laboratories, Burlingame, Calif.) was done for 1 hr, followed by application of diaminobenzidine chromogen for 5 min. The slides were then counterstained with hematoxylin and topped with a coverslip. IHC specimens were analyzed using “quick score” system in which the intensity of the immunohistochemical reaction was scored by multiplying the intensity 1 (weak), 2 (moderate), and 3 (strong) and the proportion of cells staining positively 0 (<10%), 1 (10-25%), 2 (26-50%), 3 (51-75%) or 4 (>75%).

[2] = system: H9; assay: Proliferation (3H-thymidine) of H9
Description: (§1) CCRF-CEM, CEM/C1, CEM/C2, CEM-C7, Jurkat, Loucy, Molt-4, HSB-2, SUP-T1, Hut 78, HH, Hut 102, MO, and H9 T-leukemia and T-lymphoma cell lines were purchased from the American Type Culture Collection (Manassas, Va., USA). All of the cell lines were initially expanded and cryopreserved within one month of receipt. Cells were typically used for 6 months at which time a fresh vial of cryopreserved cells was used. Total T cells from healthy donors were isolated via negative selection followed by positive selection using a CD3+ selection kit (Invitrogen, Carlsbad, Calif.). T cells were isolated from patients with T-ALL bone marrow or peripheral blood samples containing more than 70% leukemia cells using a CD2+ isolation kit (STEMCELL Technologies, Vancouver, Canada). All tissues were collected under institutional IRB-approved protocols and all participants gave written informed assent/consent. For in vitro experiments, T-ALL cells were cultured in AIM-V medium supplemented with 20% human AB serum in the presence of recombinant human stem cell factor (50 ng/mL; Amgen, Thousand Oaks, Calif.), insulin (20 nM; Sigma-Aldrich, St Louis, Mo., USA) and IL-7 (50 ng/mL; R&D Systems, Minneapolis, Minn., USA). In other experiments, protein lysate was collected using the Full Moon Biosystems (Sunnyvale, Calif., USA) buffer prior to protein examination by western blot or protein array.
Cells were cultured in a 96-well plate (Corning Costar, Corning, N.Y., USA) with various concentrations of TLR ligands 1-9, starting at 10 μg/ml, in a final volume of 200 ul. TLR ligands were diluted 2-fold. Cell lines (25-40×10^3/well) were cultured for 54 hours, whereas fresh patient-derived T-ALL cells (200×10^3/well) were cultured for 30 hours prior to adding [^3H]-thymidine for 18 hours. After this time point, cells were harvested with a Packard Filter-Mate-96 cell harvester (Perkin Elmer, Waltham, Mass., USA) and counted on Packard Top Count-NXT (Perkin Elmer, Waltham, Mass., USA). Results were expressed as average counts per minute (cpm). In some experiments CCRF-CEM cells were pre-treated with TLR1-TLR2 ligand (Pam3CysK4; 2.5 ug/ml) for 48 hrs, washed, and then cultured in the presence of varying concentrations of FBS. Forty-eight hours later, proliferation (±SD) was determined by ^3H-thymidine incorporation. Alternatively, apoptosis was measured by flow cytometry after staining cells with Annexin-V (BD Pharmingen, San Diego, Calif., USA) and propidium iodide (Sigma). Cell number was counted under microscopy by staining cells with trypan blue.
The following TLR ligands were purchased from Invivogen (San Diego, Calif., USA): tripalmitoyl-S-(bis(palmitoyloxy)propyl)-Cys-Ser-(Lys)3-Lys (TLR1-2); Poly I:C (TLR3); ultrapure S. Minnesota Lipopolysaccharide (TLR4); S. typhimurium flagellin (TLR5); FSL-1 (TLR2/6); Imiquimod (TLR7); ssRNA40/Lyovec (TLR8); CpG-ODN 2006 (TLR9).

[3] = system: HH; assay: Proliferation (3H-thymidine) of HH; settings: 3H-thymidine uptake, 72 h
Description: as §1, with “In other experiments, protein lysate was collected using the Full Moon Biosystems (Sunnyvale, Calif., USA) buffer prior to protein examination by western blot or protein array.” left out
Cells were cultured in a 96-well plate (Corning Costar, Corning, N.Y., USA) with various concentrations of TLR ligands 1-9, starting at 10 μg/ml, in a final volume of 200 ul. […] After this time point, cells were harvested with a Packard Filter-Mate-96 cell harvester (Perkin Elmer, Waltham, Mass., USA) and counted on Packard Top Count-NXT (Perkin Elmer, Waltham, Mass., USA). Results were expressed as average counts per minute (cpm). […] Forty-eight hours later, proliferation (±SD) was determined by ^3H-thymidine incorporation. Alternatively, apoptosis was measured by flow cytometry after staining cells with Annexin-V (BD Pharmingen, San Diego, Calif., USA) and propidium iodide (Sigma). Cell number was counted under microscopy by staining cells with trypan blue. […]

**Q.** How did the “p-IRAK-1 or p-IRAK-4 expression levels” value [1] turn out when “tripalmitoyl-S-(bis(palmitoyloxy)propyl)-Cys-Ser-(Lys)3-Lys [Pam3Cysk4]” was run?
**A.** remained unchanged

**Q.** What about the “Proliferative effects of TLR ligands” value ([2]; H9, 3H-thymidine uptake, 72 h) of the same substance?
**A.** ∘

**Q.** What about the “effect on proliferation (in words)” value ([2]; H9 T-lymphoma, FIG. 1A) of the same substance?
**A.** no effect on proliferation

**Q.** And the “Proliferative effects of TLR ligands” value [3]?
**A.** ∘
